Columns and labels:
[1] = tested on: ANGPTL3 protein; assay: Example 7: serum ANGPTL3 protein by ELISA in mice; assay type: in vivo, C57bl/6 mice; set-up: key: ratio: (level/pre-treatment day -1 level) ÷ mean of D5W control group
Experimental: (§1) To further assess the in vivo activity of additional ANGPTL3 RNAi agents that are designed to target position 304 on the ANGPTL3 gene, six- to eight-week-old female C57bl/6 mice were used. Pre-dose serum samples were taken at day −1 after a four hour fast. At day 1, each mouse was given a single subcutaneous administration of 200 μl containing 0.5 mg/kg (mpk) of an ANGPTL3 RNAi agent in D5W (dextrose in 5% water), or control (D5W) with no RNAi agent, according to the dosing groups recited in Table 31.
(§2) Each of the RNAi agents included a modified sequence and an N-acetyl-galactosamine-containing targeting ligand conjugated to the 5′ terminal end of the sense strand. (See Tables 3, 4, and 5 for modified sequences and targeting ligand structures). The injections were performed between the skin and muscle (i.e. subcutaneous injections) into the loose skin over the neck and shoulder area. Three (3) mice in each group were tested (n=3). Serum was collected on days 8, 15, 22, and 29. Mice were fasted for four hours prior to each collection. ANGPTL3 protein levels in serum were measured by ELISA assay (R&D Systems), according to the manufacturer's recommendations. Triglycerides, total cholesterol, high-density lipoprotein (HDL), and low-density lipoprotein (LDL) in serum were measured on a Cobas® Integra 400 (Roche Diagnostics), according to the manufacturer's recommendations.
(§3) The ANGPTL3 protein levels, triglyceride levels, total cholesterol levels, HDL levels, and LDL levels for each animal were normalized. For normalization, the level of ANGPTL3 protein, triglyceride, HDL, and total cholesterol, respectively, for each animal at a time point, was divided by the pre-treatment level of expression in that animal (in this case at day −1) to determine the ratio of expression “normalized to pre-treatment.” Expression at a specific time point was then normalized to the D5W control group by dividing the “normalized to pre-treatment” ratio for an individual animal by the mean “normalized to pretreatment” ratio of all mice in the D5W control group.

[2] = tested on: ANGPTL3 gene; assay: Example 7: serum LDL in mice; assay type: in vivo; set-up: key: ratio: (level/pre-treatment day -1 level) ÷ mean of D5W control group; details: 0.5 mg/kg single SC injection day 1, female C57bl/6 mice, n=3, ratio to D5W control
Experimental: as §1, §2, §3

[3] = tested on: ANGPTL3 gene; assay: Example 9: serum LDL in cynomolgus monkeys; assay type: in vivo, cynomolgus macaque (Macaca fascicularis); details: 2.0 mg/kg single SC injection day 1, cynos, n=3
Experimental: (§4) Additional ANGPTL3 RNAi agents were evaluated in cynomolgus monkeys. On day 1, cynomolgus macaque (Macaca fascicularis) primates (also referred to herein as “cynos”) were administered a single subcutaneous injection of 0.3 mL/kg (approximately 2-3 mL volume, depending on animal mass) containing 2.0 mg/kg of an ANGPTL3 RNAi agent, which included either AD05488, AD05743, AD05775, or AD05841, each formulated in saline. […] ANGPTL3 RNAi agents AD05488, AD05743, and AD05775 included nucleotide sequences designed to target position 304 of the ANGPTL3 gene. ANGPTL3 RNAi agent AD05841 included nucleotide sequences designed to target position 1035 of the ANGPTL3 gene.
(§5) Three (3) cynos in each group were tested (n=3). Blood samples were drawn and serum samples were analyzed on days −14 (predose), −7 (predose), 1 (pre-dose), 8, 15, 22, 29, and 35. Cynos were fasted overnight prior to each collection. ANGPTL3 protein levels in serum were measured by ELISA assay (R&D Systems), according to the manufacturer's recommendations. Triglycerides, total cholesterol, high-density lipoprotein (HDL), and low-density lipoprotein (LDL) in serum were measured on a Cobas® Integra 400 (Roche Diagnostics), according to the manufacturer's recommendations.
(§6) The ANGPTL3 protein levels, triglyceride levels, total cholesterol levels, HDL levels, and LDL levels for each animal were normalized. For normalization, the level of ANGPTL3 protein, triglyceride, HDL, and total cholesterol, respectively, for each animal at a time point, was divided by the average pre-treatment level of expression in that animal (in this case at days −14, −7, and 1) to determine the ratio of expression “normalized to pre-treatment.”

[4] = tested on: ANGPTL3 gene; assay: Example 9: serum total cholesterol in cynomolgus monkeys; assay type: in vivo, cynomolgus macaque (Macaca fascicularis); details: 2.0 mg/kg single SC injection day 1, cynos, n=3
Experimental: as §4, §5, §6

[5] = tested on: ANGPTL3 gene; assay: Example 9: serum HDL in cynomolgus monkeys; assay type: in vivo, cynomolgus macaque (Macaca fascicularis); details: 2.0 mg/kg single SC injection day 1, cynos, n=3
Experimental: as §4, §5, §6

[6] = tested on: ANGPTL3 gene; assay: Example 7: serum HDL in mice; assay type: in vivo; set-up: key: ratio: (level/pre-treatment day -1 level) ÷ mean of D5W control group; details: 0.5 mg/kg single SC injection day 1, female C57bl/6 mice, n=3, ratio to D5W control
Experimental: as §1, §2, §3

[7] = tested on: ANGPTL3 gene; assay: Example 7: serum triglycerides in mice; assay type: in vivo, C57bl/6 mice; set-up: key: ratio: (level/pre-treatment day -1 level) ÷ mean of D5W control group
Experimental: as §1, §2, §3

[8] = tested on: ANGPTL3 gene; assay: Example 9: serum triglycerides in cynomolgus monkeys; assay type: in vivo, cynomolgus macaque (Macaca fascicularis); details: 2.0 mg/kg single SC injection day 1, cynos, n=3
Experimental: as §4, §5, §6

[9] = tested on: ANGPTL3 gene; assay: Example 7: serum total cholesterol in mice; assay type: in vivo, C57bl/6 mice; set-up: key: ratio: (level/pre-treatment day -1 level) ÷ mean of D5W control group
Experimental: as §1, §2, §3

[10] = tested on: ANGPTL3 protein; assay: Example 9: serum ANGPTL3 protein by ELISA in cynomolgus monkeys; assay type: in vivo, cynomolgus macaque (Macaca fascicularis); details: for Average ANGPTL3 Protein Normalized to Pre-Treatment: 2.0 mg/kg single SC injection day 1, cynos, n=3
Experimental: as §4, §5, §6

[11] = Day 8, 0.5 mg/kg single SC injection on day 1, n=3
[12] = Day 15, 0.5 mg/kg single SC injection on day 1, n=3
[13] = Day 22, 0.5 mg/kg single SC injection on day 1, n=3
[14] = Day 29, 0.5 mg/kg single SC injection on day 1, n=3

AD05775: RNAi agent duplex: antisense AM07235-AS, sense AM07608-SS (antisense UACUGAUCAAAUAUGUUGAGC; sense GCUCAACAUNUUUGAUCAGUA; (NAG37)s GalNAc ligand; RNAi agent antisense strand modified sequence; RNAi agent sense strand modified sequence; modified_base 10 n = 2′-O-methyl-2-aminoadenosine-3′-phosphate)
Avg ANGPTL3, normalized to pre-treatment and control [1, 11]: 0.247 | Avg ANGPTL3, normalized to pre-treatment and control [1, 12]: 0.232 | Avg ANGPTL3, normalized to pre-treatment and control [1, 13]: 0.218 | Avg ANGPTL3, normalized to pre-treatment and control [1, 14]: 0.300 | Avg LDL, normalized to pre-treatment and control ([2]; Day 8): 0.975 | Avg LDL, normalized to pre-treatment and control ([2]; Day 15): 0.918 | Avg LDL, normalized to pre-treatment and control ([2]; Day 22): 1.095 | Avg LDL, normalized to pre-treatment and control ([2]; Day 29): 1.534 | Average LDL Normalized to Pre-Treatment ([3]; Day 8): 1.134 | Average LDL Normalized to Pre-Treatment ([3]; Day 15): 0.909 | Average LDL Normalized to Pre-Treatment ([3]; Day 22): 1.089 | Average LDL Normalized to Pre-Treatment ([3]; Day 29): 1.034 | Average LDL Normalized to Pre-Treatment ([3]; Day 35): 1.008 | Average Total Cholesterol Normalized to Pre-Treatment ([4]; Day 8): 0.965 | Average Total Cholesterol Normalized to Pre-Treatment ([4]; Day 15): 0.811 | Average Total Cholesterol Normalized to Pre-Treatment ([4]; Day 22): 0.811 | Average Total Cholesterol Normalized to Pre-Treatment ([4]; Day 29): 0.813 | Average Total Cholesterol Normalized to Pre-Treatment ([4]; Day 35): 0.770 | Average HDL Normalized to Pre-Treatment ([5]; Day 8): 0.904 | Average HDL Normalized to Pre-Treatment ([5]; Day 15): 0.871 | Average HDL Normalized to Pre-Treatment ([5]; Day 22): 0.737 | Average HDL Normalized to Pre-Treatment ([5]; Day 29): 0.781 | Average HDL Normalized to Pre-Treatment ([5]; Day 35): 0.723 | Avg HDL, normalized to pre-treatment and control ([6]; Day 8): 0.754 | Avg HDL, normalized to pre-treatment and control ([6]; Day 15): 0.757 | Avg HDL, normalized to pre-treatment and control ([6]; Day 22): 0.736 | Avg HDL, normalized to pre-treatment and control ([6]; Day 29): 1.069 | Avg TG, normalized to pre-treatment and control [7, 11]: 0.837 | Avg TG, normalized to pre-treatment and control [7, 12]: 0.610 | Avg TG, normalized to pre-treatment and control [7, 13]: 0.819 | Avg TG, normalized to pre-treatment and control [7, 14]: 0.885 | Average Triglycerides Normalized to Pre-Treatment ([8]; Day 8): 0.466 | Average Triglycerides Normalized to Pre-Treatment ([8]; Day 15): 0.427 | Average Triglycerides Normalized to Pre-Treatment ([8]; Day 22): 0.552 | Average Triglycerides Normalized to Pre-Treatment ([8]; Day 29): 0.391 | Average Triglycerides Normalized to Pre-Treatment ([8]; Day 35): 0.431 | Avg Total Chol, normalized to pre-treatment and control [9, 11]: 0.794 | Avg Total Chol, normalized to pre-treatment and control [9, 12]: 0.777 | Avg Total Chol, normalized to pre-treatment and control [9, 13]: 0.812 | Avg Total Chol, normalized to pre-treatment and control [9, 14]: 1.108 | Average ANGPTL3 Protein Normalized to Pre-Treatment ([10]; Day 8): 0.463 | Average ANGPTL3 Protein Normalized to Pre-Treatment ([10]; Day 15): 0.352 | Average ANGPTL3 Protein Normalized to Pre-Treatment ([10]; Day 22): 0.330 | Average ANGPTL3 Protein Normalized to Pre-Treatment ([10]; Day 29): 0.365 | Average ANGPTL3 Protein Normalized to Pre-Treatment ([10]; Day 35): 0.379 | reduction in ANGPTL3 protein compared to pre-treatment ([10]; each of the measured time points, single 2.0 mg/kg subcutaneous, cynomolgus monkeys): reduction
